Experimental data taken from ChEMBL document CHEMBL1201862, “PubChem BioAssay data set” (2004).
Activity calls are given as the source filed them.

Columns and labels:
[1] = target: Glucose-6-phosphate 1-dehydrogenase (Homo sapiens, UniProt P11413); experiment: human G6PD enzyme inhibitors, dose response, selectivity assay for P. falciparum G6PD inhibitor project, biochemical, fluorescence (AID 504792); format: functional
Aminopeptidase N = target: T1, Aminopeptidase N (Plasmodium falciparum FcB1/Columbia, UniProt O96935); experiment: P. falciparum M1AAP inhibitors, biochemical, fluorogenic H-Leu-NHMec substrate, 1536-well (AID 1445); set-up: species or system Plasmodium falciparum 3D7, 3D7
T1 sequence (O96935 whole entry): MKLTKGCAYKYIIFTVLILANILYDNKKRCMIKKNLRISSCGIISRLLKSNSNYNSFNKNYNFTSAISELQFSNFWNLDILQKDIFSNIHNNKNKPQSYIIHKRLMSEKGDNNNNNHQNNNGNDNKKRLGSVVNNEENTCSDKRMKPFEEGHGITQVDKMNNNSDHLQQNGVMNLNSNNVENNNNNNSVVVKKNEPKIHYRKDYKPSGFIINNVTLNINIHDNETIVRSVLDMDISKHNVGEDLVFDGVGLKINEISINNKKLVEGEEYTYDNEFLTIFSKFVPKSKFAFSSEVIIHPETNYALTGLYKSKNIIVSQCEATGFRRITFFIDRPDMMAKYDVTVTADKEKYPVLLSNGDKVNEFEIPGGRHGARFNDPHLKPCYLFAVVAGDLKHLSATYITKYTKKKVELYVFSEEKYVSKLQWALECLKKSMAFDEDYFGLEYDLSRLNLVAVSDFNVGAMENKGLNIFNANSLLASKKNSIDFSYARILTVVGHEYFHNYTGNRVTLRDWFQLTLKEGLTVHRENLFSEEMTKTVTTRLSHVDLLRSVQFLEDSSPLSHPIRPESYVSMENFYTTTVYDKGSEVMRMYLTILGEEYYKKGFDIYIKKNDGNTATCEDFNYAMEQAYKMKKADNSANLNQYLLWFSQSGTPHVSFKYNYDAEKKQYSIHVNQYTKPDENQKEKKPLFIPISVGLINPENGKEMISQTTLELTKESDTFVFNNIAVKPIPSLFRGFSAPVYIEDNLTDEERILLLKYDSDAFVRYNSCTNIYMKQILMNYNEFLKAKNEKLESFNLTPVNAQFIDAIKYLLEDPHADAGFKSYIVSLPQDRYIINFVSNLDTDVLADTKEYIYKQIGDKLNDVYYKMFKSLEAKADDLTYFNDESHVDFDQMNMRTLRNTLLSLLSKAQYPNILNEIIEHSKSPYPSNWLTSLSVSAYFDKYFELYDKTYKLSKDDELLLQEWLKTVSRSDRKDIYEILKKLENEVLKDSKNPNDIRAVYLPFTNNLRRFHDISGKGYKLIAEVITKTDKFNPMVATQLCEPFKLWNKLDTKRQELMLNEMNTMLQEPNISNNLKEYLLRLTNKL

[2] = target: T2, Rac GTPase-activating protein 1 (Homo sapiens, UniProt Q9H0H5); experiment: MgcRacGAP GTPase-activating activity inhibitors, confirmation, biochemical, ADP Hunter fluorescence, primary and confirmatory (AID 624330); format: functional
T2 sequence (Q9H0H5 whole entry): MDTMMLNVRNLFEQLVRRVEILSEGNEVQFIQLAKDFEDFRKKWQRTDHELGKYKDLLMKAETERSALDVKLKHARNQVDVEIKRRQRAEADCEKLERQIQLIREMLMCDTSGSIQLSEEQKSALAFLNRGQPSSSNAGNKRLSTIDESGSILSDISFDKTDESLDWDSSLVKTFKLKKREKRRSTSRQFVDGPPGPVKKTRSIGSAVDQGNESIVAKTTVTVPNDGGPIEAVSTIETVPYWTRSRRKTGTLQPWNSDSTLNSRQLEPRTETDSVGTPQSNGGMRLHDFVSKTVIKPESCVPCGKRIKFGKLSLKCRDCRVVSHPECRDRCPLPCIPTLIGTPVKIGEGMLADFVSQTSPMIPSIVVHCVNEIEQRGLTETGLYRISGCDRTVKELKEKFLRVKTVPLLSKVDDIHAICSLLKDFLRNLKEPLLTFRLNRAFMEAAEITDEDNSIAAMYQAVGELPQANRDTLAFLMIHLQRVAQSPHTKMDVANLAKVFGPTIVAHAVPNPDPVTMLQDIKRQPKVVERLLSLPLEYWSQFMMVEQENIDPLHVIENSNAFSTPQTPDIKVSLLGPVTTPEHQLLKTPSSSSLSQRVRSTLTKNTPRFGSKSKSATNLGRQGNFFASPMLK

[3] = A549 cell cytotoxicity, dose response, cytotoxicity control, plate reader, cherry-pick, antagonist series (AID 743412); format: functional, cell-based
Aspartyl aminopeptidase = target: T3, Aspartyl aminopeptidase (Plasmodium falciparum 3D7, UniProt Q8I2J3)
T3 sequence (Q8I2J3 whole entry): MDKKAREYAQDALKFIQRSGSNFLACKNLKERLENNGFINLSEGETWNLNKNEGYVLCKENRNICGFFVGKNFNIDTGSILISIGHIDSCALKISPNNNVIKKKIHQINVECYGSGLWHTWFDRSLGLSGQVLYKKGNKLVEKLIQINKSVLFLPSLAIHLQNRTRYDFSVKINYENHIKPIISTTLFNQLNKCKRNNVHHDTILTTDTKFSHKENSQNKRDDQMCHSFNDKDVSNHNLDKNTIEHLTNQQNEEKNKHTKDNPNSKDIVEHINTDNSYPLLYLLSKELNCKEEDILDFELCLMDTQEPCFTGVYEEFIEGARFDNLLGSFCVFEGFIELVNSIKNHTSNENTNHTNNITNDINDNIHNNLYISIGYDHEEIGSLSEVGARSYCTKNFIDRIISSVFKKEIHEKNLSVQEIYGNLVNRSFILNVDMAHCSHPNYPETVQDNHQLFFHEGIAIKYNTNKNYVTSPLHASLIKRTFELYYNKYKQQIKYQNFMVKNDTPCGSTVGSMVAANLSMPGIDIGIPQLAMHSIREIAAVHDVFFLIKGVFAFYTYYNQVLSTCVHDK

Protein Tat = target: T4, Protein Tat (Human immunodeficiency virus type 1 group M subtype B (isolate HXB2)(HIV-1), UniProt P04608); format: functional;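 further: tat binding to TAR RNA read out by fluorescence polarization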
T4 sequence (P04608 whole entry): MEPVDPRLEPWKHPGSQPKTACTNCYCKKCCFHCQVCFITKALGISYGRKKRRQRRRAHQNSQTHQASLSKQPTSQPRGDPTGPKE

[4] = target: Glutathione-S-transferase (Schistosoma japonicum, UniProt Q26513); experiment: biotin-GST/anti-GST TR-FRET signal inhibitors, dose response, artefact control for Vif-APOBEC3G degradation inhibitor project, biochemical (AID 1117362); format: functional
Sequence of Glutathione-S-transferase (Q26513 whole entry): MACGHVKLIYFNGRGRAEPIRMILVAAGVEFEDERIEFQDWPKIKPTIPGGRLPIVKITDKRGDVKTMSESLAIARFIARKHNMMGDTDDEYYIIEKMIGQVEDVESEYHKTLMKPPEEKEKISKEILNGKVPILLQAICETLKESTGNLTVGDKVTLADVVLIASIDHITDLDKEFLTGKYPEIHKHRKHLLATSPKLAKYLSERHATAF

Sequence of Glucose-6-phosphate 1-dehydrogenase (P11413 whole entry): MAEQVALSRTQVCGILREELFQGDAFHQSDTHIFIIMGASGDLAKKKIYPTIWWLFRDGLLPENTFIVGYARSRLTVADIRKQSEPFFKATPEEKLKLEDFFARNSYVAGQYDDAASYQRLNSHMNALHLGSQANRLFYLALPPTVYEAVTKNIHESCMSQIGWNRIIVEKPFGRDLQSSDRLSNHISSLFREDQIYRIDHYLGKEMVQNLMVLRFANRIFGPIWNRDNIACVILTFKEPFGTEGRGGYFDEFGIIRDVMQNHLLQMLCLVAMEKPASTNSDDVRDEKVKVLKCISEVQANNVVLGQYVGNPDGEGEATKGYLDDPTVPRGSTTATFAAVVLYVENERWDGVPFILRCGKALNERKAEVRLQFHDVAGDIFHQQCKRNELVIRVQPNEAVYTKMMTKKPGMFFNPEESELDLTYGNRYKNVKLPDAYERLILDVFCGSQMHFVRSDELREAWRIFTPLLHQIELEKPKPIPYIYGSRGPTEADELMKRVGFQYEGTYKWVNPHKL

In the case of `Cc1cc(C)c(S(=O)(=O)Nc2cc(SCC(=O)O)c(O)c3ccccc23)cc1C`, the IC50 [1] is reported as 8.73 µM (active) and the IC50 (Aminopeptidase N) is reported as 48.5 µM (active).
With `O=C(O)c1cc(N2N=C(C(F)(F)F)/C(=C/C=C/c3ccco3)C2=O)ccc1Cl` the IC50 [2] was 10.6 µM (active).
With `CNCc1ccccc1Sc1ccc(O)c(O)c1` the AC50 [3] was > 52 µM (inactive), the IC50 (Aspartyl aminopeptidase) was 1.89 µM (active) and the IC50 (Protein Tat) was > 100 µM (active). The IC50 [4] was 16 µM (active).
